Laboratory results taken from patent publication US6660767B2, “Coumarin compounds as microtubule stabilizing agents and therapeutic uses thereof” (The Regents of the University of California, priority 2001, dated 2003).
“Also recorded” adds a separate entry of the source. Like-named read-outs stand apart in the source and are kept apart here.

Assays:
S. purpuratus embryos = experiment: Inhibition of first cleavage (cell division) of sea urchin embryos; format: cell-based, Strongylocentrotus purpuratus; conditions: for inhibition of the first cleavage of S. purpuratus embryos: FIGS. 1-4; for IC50: Strongylocentrotus purpuratus, read-out: concentration required for half maximal inhibition of first cleavage
Description: (§1) Male and female Strongylocentrotus purpuratus or S. franciscanus were injected with 0.5 M KCl through the soft tissue of the oral surface into the coleomic cavity and were then cultured in filtered seawater by conventional methods in the art. See e.g. O'Brien, E. T., et al. (1989) Mol. Pharmacol. 35:635-642; and Jacobs, J. S. and L. Wilson (1986) Drugs Pharm. Sci. 27:481-493, which are herein incorporated by reference. Gametes were released into filtered seawater. The eggs were stirred and passed 3 times through a […] Nitex mesh (Tetko, Inc., Elmsford, N.Y.) to remove the jelly coating and then allowed to settle. The seawater was aspirated off and then the eggs were centrifuged for 4 minutes at 310 rpm. The eggs were resuspended at 1% (v/v) in filtered seawater and set aside. Fresh sperm were collected from the aboral surface of a male urchin. About 1 drop of concentrated sperm was collected into a test tube and 1 ml of seawater was added. A 1 ml aliquot of the sperm solution was added per 100 ml of suspended eggs and immediately mixed.
After 1 minute post-fertilization, about 1 ml of embryos were placed on a microscope slide and checked for percent fertilization under a 10× magnification with a light microscope. A visible fertilization membrane differentiates fertilized egg from the unfertilized. The fertilized embryos were then incubated with a coumarin compound no later than 5 minutes after initial fertilization. The embryos were incubated for about 2 hours at about 15° C. to about 17° C., or until the control embryos completed first division and were in the 2-cell stage. The amount of division was calculated in each test sample by counting the number of divided versus undivided embryos in a small sample of about 40 μL using the light microscope.
(§2) Quantitation of division was performed by counting the number of divided and nondivided embryos after the control embryos had progressed to the end of first cleavage (about 120 minutes after fertilization). […]

sea urchin embryos [1] = experiment: Spindle microtubule and chromosome organization in sea urchin embryos (immunofluorescence, modified Balczon and Schatten); format: cell-based, S. franciscanas; conditions: 50 μM dicoumarol
Description: Sea urchin embryos prepared according to Example 1 were used to study the effect of coumarin compounds on spindle microtubule organization and chromosome organization using immunofluorescence microscopy with specific antibodies for tubulin and DAPI was used to image the chromatin. Two different sea urchin embryo assay protocols were used.
Fixation and staining of embryos for immunofluorescence microscopy were performed according to a modified method of Balczon and Schatten ((1983) Cell Motility 3:213-226, which is herein incorporated by reference). […]. After extraction for 45 minutes, the embryos were fixed for 6 minutes with −10° C. methanol. After methanol fixation, the cells were rinsed for 5 minutes in PBS and then 25 μl of anti-α-tubulin monoclonal antibody (1:100) in PBS comprising 2% bovine serum albumin was added.
The embryos were incubated at 37° C. for about 60 to about 75 minutes and rinsed for 20 minutes in PBS after which 25 μl of a secondary staining solution comprising fluoroscein isothiocynate (FITC) conjugated to an anti-mouse IgG (1:100 in PBS) and DAPI (10 μg/ml) was added. The embryos were then incubated for 60 minutes at 37° C. and then rinsed for 20 minutes in PBS. Coverslips were mounted onto the slides with a solution of Vectashield® (Vector Laboratories, Inc., Burlingame, Calif.) and sealed with nail polish. […]

S. franciscanus embryos = experiment: Inhibition of first cleavage of sea urchin embryos (dose-response); format: cell-based
Description: as §1, with “Fresh sperm were collected from the aboral surface of a male urchin. About 1 drop of concentrated sperm was collected into a test tube and 1 ml of seawater was added. A 1 ml aliquot of the sperm solution was added per 100 ml of suspended eggs and immediately mixed.” left out
After 1 minute post-fertilization, about 1 ml of embryos were placed on a microscope slide and checked for percent fertilization under a 10× magnification with a light microscope. […] The amount of division was calculated in each test sample by counting the number of divided versus undivided embryos in a small sample of about 40 μL using the light microscope.
as §2

tubulin = tubulin (Bos taurus, UniProt P81947+Q6B856); experiment: Turbidity (light scattering) polymerization assay with electron microscopy; format: biochemical, bovine
tubulin, sequence (Q6B856 whole entry): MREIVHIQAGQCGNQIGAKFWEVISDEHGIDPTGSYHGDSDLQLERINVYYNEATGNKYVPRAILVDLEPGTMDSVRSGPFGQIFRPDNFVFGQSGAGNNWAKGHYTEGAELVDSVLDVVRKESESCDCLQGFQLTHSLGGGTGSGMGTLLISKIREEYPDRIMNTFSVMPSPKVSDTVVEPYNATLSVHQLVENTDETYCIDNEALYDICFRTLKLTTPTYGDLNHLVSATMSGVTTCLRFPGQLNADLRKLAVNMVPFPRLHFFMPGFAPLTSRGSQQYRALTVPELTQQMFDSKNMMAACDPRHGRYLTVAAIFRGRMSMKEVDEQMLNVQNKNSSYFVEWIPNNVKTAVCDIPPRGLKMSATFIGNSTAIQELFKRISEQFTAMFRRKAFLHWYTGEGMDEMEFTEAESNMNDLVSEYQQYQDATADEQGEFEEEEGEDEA
tubulin, sequence (P81947 whole entry): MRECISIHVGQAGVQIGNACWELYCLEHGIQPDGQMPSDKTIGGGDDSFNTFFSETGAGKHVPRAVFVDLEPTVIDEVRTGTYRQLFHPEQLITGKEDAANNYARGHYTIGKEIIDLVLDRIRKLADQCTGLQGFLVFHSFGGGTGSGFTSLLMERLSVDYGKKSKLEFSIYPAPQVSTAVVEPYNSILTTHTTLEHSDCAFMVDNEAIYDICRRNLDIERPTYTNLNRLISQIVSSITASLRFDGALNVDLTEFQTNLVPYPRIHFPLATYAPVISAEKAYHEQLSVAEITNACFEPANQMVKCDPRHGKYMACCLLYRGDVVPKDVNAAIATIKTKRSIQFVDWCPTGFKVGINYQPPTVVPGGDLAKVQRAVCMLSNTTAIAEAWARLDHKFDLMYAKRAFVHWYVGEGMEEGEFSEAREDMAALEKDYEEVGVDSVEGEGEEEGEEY
Description: To determine the rate and extent of the ability of a test compound to promote or inhibit microtubule polymerization (change in turbidity) a coumarin compound is added to a cuvet comprising about 1 mg/ml microtubule protein. The cuvet is incubated at 37° C. for 45 minutes in a spectrophotometer equipped with a heating unit and the absorbance is measured at about 340 nm. The change in absorbance is measured at intervals of 45 seconds over the 45-minute period and compared to the absorbance change induced by 1 mM GTP.
Specifically, 1.2 mg/ml of microtubule protein was mixed with different concentrations of dicoumarol in 100 mM PIPES, 1 mM MgCl2, and 1 mM EGTA (100 mM PEM buffer), and 1 mM guanosine 5′-triphosphate. Microtubule polymerization was monitored at 37° C. by light scattering at 350 nm using a Gilford Response Spectrophotometer.
10 μl aliquots were taken from spectrophotometrically followed reaction mixtures obtained during the course of the turbidity/light scattering assays at 10, 20, and 45 minutes and applied to 200-mesh carbon coated, Formavar-treated, copper grids (Ted Pella, Inc., Redding, Calif.). The sample was followed by several drops of 0.5% uranyl acetate and excess was drained off with filter paper. The grids were then examined with a Zeiss model 10CA electron microscope.

[2] = test system: Lytechinus pictus embryos; experiment: Inhibition of first cleavage of sea urchin embryos (dose-response); format: cell-based
sea urchin embryos [3] = experiment: Cell cycle analysis: dicoumarol added at 10-minute intervals after fertilization; conditions: 50 μM dicoumarol added at 10-minute intervals; FIG. 5
Description: The ability of dicoumarol to block cells in mitosis, like a mitotic spindle poison, was examined. The first mitosis typically occurs between about 70 to about 90 minutes after fertilization and cytokinesis is usually complete at about 120 minutes, giving rise to two blastomeres.
Specifically, aliquots were designated T-10, T-20, . . . T-120.

SMILES: O=c1ccc2ccc(O)cc2o1 [7-hydroxycoumarin]
- inhibition of the first cleavage of S. purpuratus embryos (S. purpuratus embryos): inhibited the first cleavage
- IC50 (S. purpuratus embryos; S. purpuratus embryos, first cleavage): ~40 µM

SMILES: O=c1ccc2ccccc2o1 [coumarin]
- inhibition of the first cleavage of S. purpuratus embryos (S. purpuratus embryos): inhibited the first cleavage

SMILES: O=c1oc2ccccc2c(O)c1Cc1c(O)c2ccccc2oc1=O [dicoumarol]
- chromosome organization (sea urchin embryos [1]): disorganized chromosomes that had not congressed to the metaphase plate
- microtubules of mitotic spindles (sea urchin embryos [1]): bipolar, but appeared to be longer and located outside an intact nuclear envelope
- inhibition of the first cleavage of S. purpuratus embryos (S. purpuratus embryos): inhibited the first cleavage
- concentration at which cell division was completely blocked (S. purpuratus embryos; S. purpuratus embryos): ≥ 20 µM
- IC50 (S. purpuratus embryos): ~4 µM
- lysis or morphological changes of treated embryos (S. purpuratus embryos; dicoumarol treated embryos): no lysis or morphological changes
- dose-response curve of cleavage inhibition (S. franciscanus embryos): identical to those obtained using S. purpuratus
- microtubule formation by electron microscopy (tubulin; 100 μM dicoumarol, polymerization prolonged to 45 minutes): microtubules were produced
- microtubule formation by electron microscopy (tubulin; axonemal seeded microtubules, 20 μM dicoumarol): revealed actual microtubule structures
- microtubule formation by electron microscopy (tubulin; polymerization for 10 and 20 minutes, no axonemes): No microtubules were formed
- rate and extent of polymerization of tubulin (turbidity) (tubulin; tubulin 12 μM, dicoumarol 0 μM-80 μM, FIG. 9): increased the rate and extent of tubulin polymerization; also recorded: concentration-dependent increase
- dose-response curve of cleavage inhibition [2]: identical to those obtained using S. purpuratus
- inhibition of first cleavage versus time of addition after fertilization (sea urchin embryos [3]): rapidly declined when dicoumarol was added 90 minutes after fertilization; also recorded: blocked if added after metaphase (90 minutes)

SMILES: CC(=O)CC(c1ccccc1)c1c(O)c2ccccc2oc1=O (centres unmarked) [warfarin]
- inhibition of the first cleavage of S. purpuratus embryos (S. purpuratus embryos): inhibited the first cleavage
